Reference: the supplement of paper PMC10307832

Assays:
Test in all cases: relative viability (nuclei count vs DMSO), 5 days (fraction); higher = more cells survive
RERF-LC-KJ = tested on: RERF-LC-KJ
Procedure, shortened: (§1)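 One day after seeding in 1536-well plates, lung cancer cell lines were dosed by pin tool. Dosing was either single-drug or a fixed anchor-drug dose plus five library-drug doses (not always all listed) in √10 steps. After 5 days, nuclei were stained in one fix-and-stain step and counted on 4× images, and relative viability is the nuclei count of treated wells over that of vehicle wells, given as the median of duplicate plates.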

NCI-H2405 = tested on: NCI-H2405
Procedure, shortened: as §1

HCC-827 = tested on: HCC-827
Procedure, shortened: as §1

NCI-H1666 = tested on: NCI-H1666
Procedure, shortened: as §1

LK-2 = tested on: LK-2
Procedure, shortened: as §1

SW 900 = tested on: SW 900
Procedure, shortened: as §1

NCI-H1975 = tested on: NCI-H1975
Procedure, shortened: as §1

NCI-H2126 = tested on: NCI-H2126
Procedure, shortened: as §1

NCI-H23 = tested on: NCI-H23
Procedure, shortened: as §1

LXF-289 = tested on: LXF-289
Procedure, shortened: as §1

EMC-BAC-2 = tested on: EMC-BAC-2
Procedure, shortened: as §1

EKVX = tested on: EKVX
Procedure, shortened: as §1

EPLC-272H = tested on: EPLC-272H
Procedure, shortened: as §1

HCC-78 = tested on: HCC-78
Procedure, shortened: as §1

NCI-H322M = tested on: NCI-H322M
Procedure, shortened: as §1

ChaGo-K-1 = tested on: ChaGo-K-1
Procedure, shortened: as §1

LCLC-103H = tested on: LCLC-103H
Procedure, shortened: as §1

LU99A = tested on: LU99A
Procedure, shortened: as §1

PC-14 = tested on: PC-14
Procedure, shortened: as §1

NCI-H2342 = tested on: NCI-H2342
Procedure, shortened: as §1

O=c1cc(N2CCOCC2)oc2c(-c3cccc4c3sc3ccccc34)cccc12 + NC(=O)Nc1cc(-c2cccc(F)c2)sc1C(=O)N[C@H]1CCCNC1 [AZD7762] (partner 0.2 µM)
relative viability (RERF-LC-KJ; first compound 0.01 µM): 0.595
relative viability (RERF-LC-KJ; first compound 0.03162 µM): 0.951
relative viability (RERF-LC-KJ; first compound 0.1 µM): 1.18
relative viability (RERF-LC-KJ; first compound 0.3162 µM): 0.994
relative viability (RERF-LC-KJ; first compound 1 µM): 1.03
relative viability (NCI-H2405; first compound 0.01 µM): 0.7
relative viability (NCI-H2405; first compound 0.03162 µM): 0.727
relative viability (NCI-H2405; first compound 0.1 µM): 0.552
relative viability (NCI-H2405; first compound 0.3162 µM): 0.787
relative viability (NCI-H2405; first compound 1 µM): 0.827
relative viability (HCC-827; first compound 0.01 µM): 0.26
relative viability (HCC-827; first compound 0.03162 µM): 0.179
relative viability (HCC-827; first compound 0.1 µM): 0.133
relative viability (HCC-827; first compound 0.3162 µM): 0.184
relative viability (HCC-827; first compound 1 µM): 0.261
relative viability (NCI-H1666; first compound 0.01 µM): 0.842
relative viability (NCI-H1666; first compound 0.03162 µM): 0.886
relative viability (NCI-H1666; first compound 0.1 µM): 0.797
relative viability (NCI-H1666; first compound 0.3162 µM): 0.675
relative viability (NCI-H1666; first compound 1 µM): 0.7
relative viability (LK-2; first compound 0.01 µM): 0.468
relative viability (LK-2; first compound 0.03162 µM): 0.369
relative viability (LK-2; first compound 0.1 µM): 0.262
relative viability (LK-2; first compound 0.3162 µM): 0.369
relative viability (LK-2; first compound 1 µM): 0.354
relative viability (SW 900; first compound 0.03162 µM): 0.748
relative viability (SW 900; first compound 0.1 µM): 0.378
relative viability (SW 900; first compound 0.3162 µM): 0.702
relative viability (SW 900; first compound 1 µM): 0.497
relative viability (NCI-H1975; first compound 0.01 µM): 0.676
relative viability (NCI-H1975; first compound 0.03162 µM): 0.735
relative viability (NCI-H1975; first compound 0.1 µM): 0.554
relative viability (NCI-H1975; first compound 0.3162 µM): 0.808
relative viability (NCI-H1975; first compound 1 µM): 0.553
relative viability (NCI-H2126; first compound 0.01 µM): 0.982
relative viability (NCI-H2126; first compound 0.03162 µM): 0.97
relative viability (NCI-H2126; first compound 0.1 µM): 1.12
relative viability (NCI-H2126; first compound 0.3162 µM): 0.981
relative viability (NCI-H2126; first compound 1 µM): 1.02
relative viability (NCI-H23; first compound 0.01 µM): 0.306
relative viability (NCI-H23; first compound 0.03162 µM): 0.309
relative viability (NCI-H23; first compound 0.3162 µM): 0.307
relative viability (NCI-H23; first compound 1 µM): 0.272
relative viability (LXF-289; first compound 0.01 µM): 1.11
relative viability (LXF-289; first compound 0.03162 µM): 1.08
relative viability (LXF-289; first compound 0.1 µM): 0.75
relative viability (LXF-289; first compound 0.3162 µM): 1.2
relative viability (LXF-289; first compound 1 µM): 1.21
relative viability (EMC-BAC-2; first compound 0.01 µM): 1.09
relative viability (EMC-BAC-2; first compound 0.03162 µM): 1.17
relative viability (EMC-BAC-2; first compound 0.1 µM): 1.19
relative viability (EMC-BAC-2; first compound 0.3162 µM): 1.14
relative viability (EMC-BAC-2; first compound 1 µM): 1.11
relative viability (EKVX; first compound 0.01 µM): 0.654
relative viability (EKVX; first compound 0.03162 µM): 0.757
relative viability (EKVX; first compound 0.1 µM): 0.445
relative viability (EKVX; first compound 0.3162 µM): 0.878
relative viability (EKVX; first compound 1 µM): 0.695
relative viability (EPLC-272H; first compound 0.01 µM): 0.244
relative viability (EPLC-272H; first compound 0.03162 µM): 0.282
relative viability (EPLC-272H; first compound 0.1 µM): 0.12
relative viability (EPLC-272H; first compound 0.3162 µM): 0.31
relative viability (EPLC-272H; first compound 1 µM): 0.211
relative viability (HCC-78; first compound 0.01 µM): 0.629
relative viability (HCC-78; first compound 0.03162 µM): 0.616
relative viability (HCC-78; first compound 0.1 µM): 0.354
relative viability (HCC-78; first compound 0.3162 µM): 0.615
relative viability (HCC-78; first compound 1 µM): 0.5
relative viability (NCI-H322M; first compound 0.01 µM): 0.578
relative viability (NCI-H322M; first compound 0.03162 µM): 0.589
relative viability (NCI-H322M; first compound 0.3162 µM): 0.595
relative viability (NCI-H322M; first compound 1 µM): 0.581
relative viability (ChaGo-K-1; first compound 0.01 µM): 0.847
relative viability (ChaGo-K-1; first compound 0.03162 µM): 0.898
relative viability (ChaGo-K-1; first compound 0.1 µM): 0.6
relative viability (ChaGo-K-1; first compound 0.3162 µM): 0.831
relative viability (ChaGo-K-1; first compound 1 µM): 0.938
relative viability (LCLC-103H; first compound 0.01 µM): 0.799
relative viability (LCLC-103H; first compound 0.03162 µM): 0.777
relative viability (LCLC-103H; first compound 0.1 µM): 0.804
relative viability (LCLC-103H; first compound 0.3162 µM): 0.815
relative viability (LCLC-103H; first compound 1 µM): 0.688
relative viability (LU99A; first compound 0.01 µM): 0.37
relative viability (LU99A; first compound 0.03162 µM): 0.415
relative viability (LU99A; first compound 0.1 µM): 0.438
relative viability (LU99A; first compound 0.3162 µM): 0.314
relative viability (LU99A; first compound 1 µM): 0.384
relative viability (PC-14; first compound 0.01 µM): 0.306
relative viability (PC-14; first compound 0.03162 µM): 0.322
relative viability (PC-14; first compound 0.1 µM): 0.116
relative viability (PC-14; first compound 0.3162 µM): 0.516
relative viability (PC-14; first compound 1 µM): 0.27
relative viability (NCI-H2342; first compound 0.01 µM): 0.566
relative viability (NCI-H2342; first compound 0.03162 µM): 0.483
relative viability (NCI-H2342; first compound 0.1 µM): 0.366
relative viability (NCI-H2342; first compound 0.3162 µM): 0.45
relative viability (NCI-H2342; first compound 1 µM): 0.433
